Source: publication PMC2360244 (British Journal of Cancer, 2007)

How the values were obtained:
[1] = system: acetylated H3 in A2780 ovarian xenografts; experiment: H3 acetylation in A2780 xenograft tumour tissue, immunofluorescence; format: in vivo, mice; settings: 40 mpk p.o. once daily, tumours harvested 4 h after dosing, day 2
Protocol: For immunofluorescent staining of AcH3, cryosections of A2780 ovarian carcinoma were fixed for 2 min in 4% neutral buffered formalin and subsequently for 10 min in ethanol (100%). After blocking with goat immunoglobulin (Jackson Immunoresearch Laboratories, Suffolk, UK) for 60 min, the sections were incubated with anti-AcH3 (Upstate, 1/5000) for 2 h and with goat anti-rabbit CY3-conjugated secondary antibody (1/500 Jackson Immunoresearch Laboratories) for 2 h. For negative controls, primary antibody was omitted. Nuclei were counterstained using Hoechst (1/2000) for 5 min and the cryosections were mounted in glycerin-gelatin. Images were taken using the Zeiss Axioplan 2 & Axiocam, and processed using Photoshop 7.0 and Image Tool Processing Kit. Representative images of each group (n=3) are shown. For TUNEL staining, cells were fixed with 4% paraformaldehyde for 5 min and then incubated for 1 h at 37°C in a solution containing 25 mM Tris, 200 mM sodium cacodylate, 1.25 mg ml^−1 BSA, 1.25 mM CoCl2, 10 mM dATP (Sigma Chemical Company), 2.5 mM fluorescein-dUTP (Amersham Pharmacia Biotech AB) and 50 U ml^−1 TdT (Roche, Vilvoorde, Belgium). Incorporated Fluorescein-dUTP was detected with a sheep antifluorescein peroxidase-conjugated antiserum (Boehringer Mannheim, 1/600, Roche, Vivoorde, Belgium). The peroxidase conjugate was visualised using amino ethylcarbazol. […]

[2] = system: H460 lung carcinoma xenograft; experiment: H460 lung xenograft, tumour growth; format: in vivo, mice; settings: median tumour size at end of study
Protocol: All mice used in the in vivo studies were athymic male NMRI nu/nu mice purchased from Janvier (France) and were treated according to the ethical guidelines prescribed by UKCCCR. A2780 ovarian, HCT116 colon and H460 lung carcinoma cells were injected s.c. (10^7 cells per 200 μl) into the inguinal region of Nude mice. […] Tumour size was determined using caliper measurement and tumour volume was determined by using the formula: TV=(a^2 × b)/2 (in which a represents the width and b the length).
Mice were treated orally once daily (q.d.) between day 4 and 28 (A2780) or between day 4 and 32 (H460 and HCT116). (A) A2780 ovarian tumours were measured at least twice a week throughout the study, and results are represented as the median tumour size, expressed in mm^3, of each individual group (n=10). (B) Mice were treated orally q.d. at the indicated doses. Results are represented as the treated/control values (%) of the median tumour size (n=10) at the end of the study.

SMILES: O=C(NO)c1cnc(N2CCN(S(=O)(=O)c3ccc4ccccc4c3)CC2)nc1 [R306465]
- H3 acetylation in tumour tissue [1]: maximal and homogeneous increase in H3 acetylation
- T/C values (%) H460 lung ([2]; 10 mpk p.o. q.d. day 4 to 32): 56%
- T/C values (%) H460 lung ([2]; 20 mpk p.o. q.d. day 4 to 32): 64%
- T/C values (%) H460 lung ([2]; 40 mpk p.o. q.d. day 4 to 32): 31%
